Test results: the supplement of paper PMC11451515

System: SEM cells
Experiment: cell viability relative to DMSO control; higher = less cytotoxic
Conditions: 48 h
Procedure, shortened: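 Three leukemia lines were tested: NOMO1 and SEM at 500 cells/well and P12-Ichikawa at 1000 cells/well. Each was adapted for at least four passages in each medium and seeded in 5 μl in 1536-well plates, and library compounds in DMSO were pin-dosed from 47 μM to 0.79 nM in 11 threefold steps. After 48 h at 37°C, CellTiter-Glo One luminescence was read. Viability is a percentage relative to DMSO wells on each plate, with cell-free wells as background.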

[1] = HPLM + 10% dialyzed FBS, 0.000781 µM
[2] = HPLM + 10% dialyzed FBS, 0.00234 µM
[3] = HPLM + 10% dialyzed FBS, 0.00702 µM
[4] = HPLM + 10% dialyzed FBS, 0.0211 µM
[5] = HPLM + 10% dialyzed FBS, 0.0632 µM
[6] = HPLM + 10% dialyzed FBS, 0.19 µM
[7] = HPLM + 10% dialyzed FBS, 0.569 µM
[8] = HPLM + 10% dialyzed FBS, 1.71 µM
[9] = HPLM + 10% dialyzed FBS, 5.12 µM
[10] = HPLM + 10% dialyzed FBS, 15.4 µM
[11] = HPLM + 10% dialyzed FBS, 46.1 µM
[12] = RPMI 5 mM glucose + 10% FBS, 0.000781 µM
[13] = RPMI 5 mM glucose + 10% FBS, 0.00234 µM
[14] = RPMI 5 mM glucose + 10% FBS, 0.00702 µM
[15] = RPMI 5 mM glucose + 10% FBS, 0.0211 µM
[16] = RPMI 5 mM glucose + 10% FBS, 0.0632 µM
[17] = RPMI 5 mM glucose + 10% FBS, 0.19 µM
[18] = RPMI 5 mM glucose + 10% FBS, 0.569 µM
[19] = RPMI 5 mM glucose + 10% FBS, 1.71 µM
[20] = RPMI 5 mM glucose + 10% FBS, 5.12 µM
[21] = RPMI 5 mM glucose + 10% FBS, 15.4 µM
[22] = RPMI 5 mM glucose + 10% FBS, 46.1 µM
[23] = RPMI 5 mM glucose + 10% dialyzed FBS, 0.000781 µM
[24] = RPMI 5 mM glucose + 10% dialyzed FBS, 0.00234 µM
[25] = RPMI 5 mM glucose + 10% dialyzed FBS, 0.00702 µM
[26] = RPMI 5 mM glucose + 10% dialyzed FBS, 0.0211 µM
[27] = RPMI 5 mM glucose + 10% dialyzed FBS, 0.0632 µM
[28] = RPMI 5 mM glucose + 10% dialyzed FBS, 0.19 µM
[29] = RPMI 5 mM glucose + 10% dialyzed FBS, 0.569 µM
[30] = RPMI 5 mM glucose + 10% dialyzed FBS, 1.71 µM
[31] = RPMI 5 mM glucose + 10% dialyzed FBS, 5.12 µM
[32] = RPMI 5 mM glucose + 10% dialyzed FBS, 15.4 µM
[33] = RPMI 5 mM glucose + 10% dialyzed FBS, 46.1 µM

Structure (SMILES) | cell viability [1] [%] | cell viability [2] [%] | cell viability [3] [%] | cell viability [4] [%] | cell viability [5] [%] | cell viability [6] [%] | cell viability [7] [%] | cell viability [8] [%] | cell viability [9] [%] | cell viability [10] [%] | cell viability [11] [%] | cell viability [12] [%] | cell viability [13] [%] | cell viability [14] [%] | cell viability [15] [%] | cell viability [16] [%] | cell viability [17] [%] | cell viability [18] [%] | cell viability [19] [%] | cell viability [20] [%] | cell viability [21] [%] | cell viability [22] [%] | cell viability [23] [%] | cell viability [24] [%] | cell viability [25] [%] | cell viability [26] [%] | cell viability [27] [%] | cell viability [28] [%] | cell viability [29] [%] | cell viability [30] [%] | cell viability [31] [%] | cell viability [32] [%] | cell viability [33] [%]
CCc1cc(Nc2nccc(-c3c(-c4ccc(OC)c(C(=O)Nc5c(F)cccc5F)c4)nc4ccccn34)n2)c(OC)cc1N1CCC(N2CCN([S+](C)(=O)[O-])CC2)CC1 | 88.9 | 84.9 | 102 | 93.2 | 87.7 | 84.8 | 95.3 | 89.1 | 96.2 | 82.6 | 52.4 | 88.4 | 94.6 | 102 | 100 | 107 | 121 | 105 | 91.6 | 91.9 | 66.6 | 23.5 | 83.1 | 78 | 80.7 | 101 | 87.8 | 79.9 | 86 | 80.6 | 89.1 | 65.9 | 38.7
CNC(=O)c1ccc(-c2cnc3ncc(Cc4ccc5ncccc5c4)n3n2)cc1F | 108 | 126 | 122 | 119 | 128 | 117 | 124 | 137 | 120 | 127 | 124 | 110 | 129 | 100 | 127 | 133 | 124 | 126 | 125 | 124 | 133 | 105 | 116 | 121 | 129 | 126 | 129 | 130 | 144 | 146 | 131 | 118 | 132
OC1=C(O)C2=C(\C=C/C(=O)O2)C=C1 | 82.7 | 94.1 | 90.2 | 101 | 65.4 | 102 | 98.4 | 103 | 99.1 | 93.9 | 9.29 | 91.8 | 106 | 98.1 | 91.6 | 70 | 91.8 | 98.3 | 102 | 102 | 93.5 | 7.55 | 83.2 | 101 | 98.9 | 102 | 78.8 | 101 | 112 | 101 | 90.4 | 90.3 | 9.04
Cc1cc(OCCCc2c(C(=O)O)n(Cc3cccnc3)c3c(-c4c(COc5ccc(N6CCN([S+](C)(=O)[O-])CC6)cc5)nn(C)c4C)cccc23)cc(C)c1Cl | 102 | 94.1 | 105 | 101 | 89.4 | 91.8 | 100 | 93.3 | 84.9 | 81.5 | 62.2 | 112 | 116 | 133 | 106 | 105 | 113 | 112 | 96.9 | 111 | 91.2 | 67.4 | 86.7 | 94.5 | 96.1 | 104 | 102 | 110 | 90.7 | 91.7 | 89.8 | 76.4 | 53.1
O=C(OC)[C@]12CC[C@@]3(C)[C@]4(C)CC[C@H]5[C@@](C)(C)C(=O)C(=C[C@]5(C)C4=CC(=O)[C@@H]3[C@@H]2C[C@](C)(C)CC1)C#N | 92.6 | 83.3 | 100 | 101 | 104 | 99.7 | 98.1 | 107 | 81 | 3.9 | 4.06 | 101 | 91.8 | 112 | 94.6 | 110 | 97.4 | 101 | 99.7 | 109 | 3.61 | 4.26 | 82 | 87.2 | 90.8 | 92.6 | 109 | 102 | 103 | 77.4 | 73.6 | 3.1 | 3.38
CC(C)C(C)/C=C/C(C)C1CCC2C3=CC=C4CC(O)CCC4(C)C3CCC21C (stereo unspecified) | 92.6 | 79.7 | 86.7 | 73.2 | 82 | 77.4 | 83.7 | 76.5 | 68.6 | 81.8 | 86.4 | 99.6 | 107 | 111 | 99.8 | 97.1 | 94 | 111 | 92.9 | 98.5 | 96.1 | 102 | 88 | 107 | 95.1 | 83.1 | 107 | 91.4 | 117 | 105 | 87.2 | 88.8 | 88.3
CC1=C(/C=C/C(C)=C/C=C/C(C)=C/C=C/C=C(C)/C=C/C=C(C)/C=C/C2=C(C)CCCC2(C)C)C(C)(C)CCC1 | 96.8 | 101 | 106 | 113 | 102 | 108 | 94.3 | 110 | 115 | 95.4 | 98.1 | 93.1 | 115 | 105 | 98.3 | 106 | 108 | 94.2 | 118 | 119 | 104 | 99.4 | 101 | 100 | 114 | 106 | 109 | 105 | 92.8 | 125 | 103 | 119 | 85.5
